Activity calls are given as the source filed them. The rule behind the calls is not given here. Where a SMILES comes first, the peptide text is derived from it.
How the values were obtained:
HL-60 = assay: Cytotoxicity against human HL60 cells; type: functional, cell-based
[1] = Cytotoxicity against human Bel7404 cells; type: functional; conditions: BEL-7404, read-out: ED50 (the source's name)

SMILES	Activity (HL-60)	EC50 [1] [µg/mL]
CC(C)C[C@@H]1NC(=O)[C@H]([C@@H](C)O)NC(=O)[C@@H]2CCCN2C(=O)CNC(=O)[C@H](Cc2ccccc2)NC(=O)[C@@H]2CCCN2C(=O)[C@H](Cc2c[nH]c3ccccc23)NC1=O (cyclo(FGPTLWP))	inactive	
CC(C)C[C@@H]1NC(=O)[C@H](Cc2c[nH]c3ccccc23)NC(=O)[C@@H]2CCCN2C(=O)[C@H](Cc2ccccc2)NC(=O)CNC(=O)[C@@H]2CCCN2C(=O)[C@H]([C@@H](C)O)NC1=O [PHAKELLISTATIN 13] (cyclo(FPWLTPG))		< 0.01
